The text below walks through data of PMC8151276, “An Integrated Approach toward NanoBRET Tracers for Analysis of GPCR Ligand Engagement” (Molecules, 2021).

Common to all, as to type: binding
Test [1] deals with T1, CCR7 (Homo sapiens, UniProt P32248).
T1 construct: purchased Promega (in-house HiBiT-GPCR construct library, NanoBRET)
T1 sequence (P32248 25-378): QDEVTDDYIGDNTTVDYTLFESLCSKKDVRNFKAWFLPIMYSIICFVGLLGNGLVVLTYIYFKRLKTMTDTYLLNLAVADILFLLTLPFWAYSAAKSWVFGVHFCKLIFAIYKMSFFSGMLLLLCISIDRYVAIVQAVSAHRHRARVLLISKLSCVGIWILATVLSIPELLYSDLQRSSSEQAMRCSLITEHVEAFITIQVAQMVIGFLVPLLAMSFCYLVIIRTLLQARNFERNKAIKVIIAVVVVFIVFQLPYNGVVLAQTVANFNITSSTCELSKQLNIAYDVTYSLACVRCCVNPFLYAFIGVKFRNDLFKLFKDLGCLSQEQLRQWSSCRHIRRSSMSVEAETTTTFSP
The experiment in a line: NanoBRET screen HiBiT-CCR7 in HEK293. As for the experimental part: (§1) Each tracer candidate was screened across the entire library of HiBiT-GPCR constructs using NanoBRET as the detection modality. As depicted in Figure 4A, the specificity of interactions was evaluated through decrease in BRET due to competitive displacement of a bound tracer by excess parental compound. Each tracer was analyzed for binding to each HiBiT-GPCR fusion in the absence and in the presence of competing parental compound. Briefly, HEK293 cells were transfected with HiBiT-GPCR constructs diluted into promoterless DNA to reduce expression and maximize translocation to the cell surface. Each tracer candidate was then screened at concentrations of 1 μM and 0.1 μM across cells expressing these fusions. Cells were treated for 1.5 h with tracer either alone or in the presence of 20 μM competing parental compound (i.e., control). BRET was measured upon addition of purified LgBiT and subsequent complementation with HiBiT genetically fused to a GPCR. The specificity of interactions was assessed through a decrease in BRET signal due to competitive displacement of the bound tracer. To further gauge the robustness of these interactions, the fold response over the control (i.e., BRETtracer/BRETcontrol) was calculated. We chose a 1.5-fold response, which translates to ≥7-fold signal over noise as the minimal threshold required to score an interaction as positive. […]. Below we highlight the screening results obtained for our exemplary fluorescent tracers based on Clozapine, Amitriptyline and AZD1283.
(§2) HiBiT-GPCR DNA constructs were diluted in 10 mM Tris pH 8 to a final concentration of 0.01 μg/μL, arrayed in 96-well plates and stored at −20 °C. For transfection, HEK293 cells were suspended in Opti-MEM (without phenol red) supplemented with 2% fetal bovine serum (Seradigm) and 100 units/mL penicillin–streptomycin (Gibco) at a final concentration of 220,000 cells/mL and dispensed into white 96-well plates at 90 μL/well. Subsequent transfections and screens were carried using an Agilent Bravo Automated Liquid Handling Platform. First, the 96-well HiBiT DNA arrays were diluted 25-fold in Opti-MEM (without serum or phenol red) to a final concentration of 0.0004 μg/μL and 20 μL of the diluted DNAs were transferred into new 96-well plates. Next, promoterless carrier DNA (1 μg/μL) was diluted 25-fold (0.04 μg/μL) and then dispensed into the diluted arrays at 20 μL/well. Following brief mixing, Viafect transfection reagent (Promega) diluted 16-fold into Opti-MEM was dispensed into the plates at 40 μL/well. After mixing by pipetting, plates were incubated for 10 min on the pipetting station deck. The DNA-transfection reagent complexes were then added to plates containing cells. To facilitate the screen, 10 μL of DNA-transfection reagent complexes were added in duplicates to the top 4 and bottom 4 rows, resulting in two identical 48-well arrays per plate. Plates with transfected cells were incubated for 18–20 h at 37 °C/5% CO2. A screen of each tracer across the entire library using two different concentrations requires duplicate plates of transfected cells. Depending on the number of tracers being screened, transfections can be scaled up using the same ratios. The next day, for each tracer, four 20× screening solutions in tracer dilution buffer (Promega) were prepared: two duplicates at final concentration of 20 μM and two duplicates at a final concentration of 2 μM. A competing unmodified compound was added to one of each duplicate at a final concentration of 400 μM. The four resulting solutions were diluted 4-fold in Opti-MEM without serum or phenol red to generate 5× solutions (5 µM and 0.5 µM tracer +/− 100 μM competing compound). To screen the library, a BioTek MultiFlo FX liquid dispenser was used to dispense 22.5 µL of tracer solution to the top 4 rows and 22.5 µL tracer + competing compound solution to the 4 bottom rows. Plates were briefly mixed on an orbital shaker and incubated for 1.5 h at room temperature. […]
On the technique in general: BRET reads energy transfer from a luciferase to a nearby fluorophore.

The target of test [2] is T2, CXCR2 (Homo sapiens, UniProt P25025).
T2 construct: purchased Promega (in-house HiBiT-GPCR construct library, NanoBRET)
T2 sequence (P25025 1-360): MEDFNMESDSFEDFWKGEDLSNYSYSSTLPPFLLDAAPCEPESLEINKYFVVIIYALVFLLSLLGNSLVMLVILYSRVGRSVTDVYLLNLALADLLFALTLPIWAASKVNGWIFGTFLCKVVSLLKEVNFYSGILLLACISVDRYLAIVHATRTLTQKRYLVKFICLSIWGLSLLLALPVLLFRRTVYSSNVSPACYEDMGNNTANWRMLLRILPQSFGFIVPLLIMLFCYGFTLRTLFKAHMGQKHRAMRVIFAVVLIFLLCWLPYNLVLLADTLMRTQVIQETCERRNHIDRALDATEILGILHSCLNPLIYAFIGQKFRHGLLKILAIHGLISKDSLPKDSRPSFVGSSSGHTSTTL
The experiment in a line: NanoBRET screen HiBiT-CXCR2 in HEK293. As for the experimental part: as §1, §2

Test [3] has as its target T3, PTAFR (Homo sapiens, UniProt P25105).
T3 construct: purchased Promega (in-house HiBiT-GPCR construct library, NanoBRET)
Briefly: NanoBRET screen HiBiT-PTAFR in HEK293. The protocol:
as §1, §2

For test [4], the target named is T4, BRS3 (Homo sapiens, UniProt P32247).
T4 construct: purchased Promega (in-house HiBiT-GPCR construct library, NanoBRET)
T4 sequence (P32247 1-399): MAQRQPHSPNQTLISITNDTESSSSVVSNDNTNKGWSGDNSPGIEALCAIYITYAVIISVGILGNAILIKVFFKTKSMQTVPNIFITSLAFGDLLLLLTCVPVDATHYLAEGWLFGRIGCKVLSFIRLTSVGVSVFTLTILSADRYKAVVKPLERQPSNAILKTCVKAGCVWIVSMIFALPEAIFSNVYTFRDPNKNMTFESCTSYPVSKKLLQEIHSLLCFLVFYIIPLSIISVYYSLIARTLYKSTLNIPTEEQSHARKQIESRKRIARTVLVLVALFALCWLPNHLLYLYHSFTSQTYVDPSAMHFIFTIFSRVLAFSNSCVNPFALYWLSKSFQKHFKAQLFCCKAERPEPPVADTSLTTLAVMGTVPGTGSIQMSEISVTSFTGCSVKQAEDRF
Briefly: NanoBRET screen HiBiT-BRS3 in HEK293. As for the experimental part:
as §1, §2

For test [5], the target named is T5, RXFP2 (Homo sapiens, UniProt Q8WXD0).
T5 construct: purchased Promega (in-house HiBiT-GPCR construct library, NanoBRET)
The experiment in a line: NanoBRET screen HiBiT-RXFP2 in HEK293. The protocol:
as §1, §2

The target of test [6] is T6, NPBWR2 (Homo sapiens, UniProt P48146).
T6 construct: purchased Promega (in-house HiBiT-GPCR construct library, NanoBRET)
Briefly: NanoBRET screen HiBiT-NPBWR2 in HEK293. The protocol:
as §1, §2

T3 sequence (P25105 whole entry): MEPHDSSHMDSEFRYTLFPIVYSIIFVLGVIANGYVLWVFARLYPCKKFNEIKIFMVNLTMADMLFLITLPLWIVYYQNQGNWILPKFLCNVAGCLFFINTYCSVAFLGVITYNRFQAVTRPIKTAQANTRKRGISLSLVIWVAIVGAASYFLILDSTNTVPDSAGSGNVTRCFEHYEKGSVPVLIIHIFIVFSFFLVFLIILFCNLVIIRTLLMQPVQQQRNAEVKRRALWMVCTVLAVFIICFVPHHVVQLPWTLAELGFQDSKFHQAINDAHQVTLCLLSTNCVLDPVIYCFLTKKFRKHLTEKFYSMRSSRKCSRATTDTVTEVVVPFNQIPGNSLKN
T5 sequence (Q8WXD0 whole entry): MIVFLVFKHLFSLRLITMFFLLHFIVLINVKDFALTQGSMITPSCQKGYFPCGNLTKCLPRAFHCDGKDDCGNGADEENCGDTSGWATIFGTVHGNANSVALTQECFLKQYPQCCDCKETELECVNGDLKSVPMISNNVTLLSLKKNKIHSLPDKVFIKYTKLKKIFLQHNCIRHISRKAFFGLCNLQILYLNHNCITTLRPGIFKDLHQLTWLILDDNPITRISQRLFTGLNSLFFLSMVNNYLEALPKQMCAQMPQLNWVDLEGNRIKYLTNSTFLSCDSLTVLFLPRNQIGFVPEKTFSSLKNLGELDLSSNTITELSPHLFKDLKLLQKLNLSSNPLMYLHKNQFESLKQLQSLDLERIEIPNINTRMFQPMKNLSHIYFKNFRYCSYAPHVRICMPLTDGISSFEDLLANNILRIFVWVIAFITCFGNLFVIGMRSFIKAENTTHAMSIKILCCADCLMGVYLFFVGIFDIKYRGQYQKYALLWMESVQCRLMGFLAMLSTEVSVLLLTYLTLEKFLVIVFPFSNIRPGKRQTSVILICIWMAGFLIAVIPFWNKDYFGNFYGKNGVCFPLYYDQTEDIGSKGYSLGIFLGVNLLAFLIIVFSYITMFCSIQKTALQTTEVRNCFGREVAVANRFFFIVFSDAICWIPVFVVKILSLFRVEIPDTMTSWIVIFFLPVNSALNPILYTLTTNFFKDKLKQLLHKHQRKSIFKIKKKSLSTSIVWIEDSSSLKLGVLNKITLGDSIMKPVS
T6 sequence (P48146 whole entry): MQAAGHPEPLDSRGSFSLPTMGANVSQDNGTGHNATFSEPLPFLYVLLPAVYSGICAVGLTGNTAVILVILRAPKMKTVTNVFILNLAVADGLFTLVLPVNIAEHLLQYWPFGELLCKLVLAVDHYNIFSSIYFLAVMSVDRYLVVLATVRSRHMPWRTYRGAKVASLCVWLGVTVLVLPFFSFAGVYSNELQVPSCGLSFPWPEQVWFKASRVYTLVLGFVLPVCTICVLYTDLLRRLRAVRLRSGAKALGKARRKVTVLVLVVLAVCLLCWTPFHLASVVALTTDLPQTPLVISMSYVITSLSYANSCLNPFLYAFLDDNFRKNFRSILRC

With `O=C(CCc1ccc2n1[B-](F)(F)[N+]1=C(c3ccc[nH]3)C=CC1=C2)NCc1ccc(C(=O)NCCOCCC(=O)N[C@@H]2CC[C@@]3(O)[C@H]4Cc5ccc(O)c6c5[C@@]3(CCN4CC3CC3)[C@H]2O6)cc1` [Naltrexone-3-NB590], the “NanoBRET Fold Response” value in test [1] (CCR7, tracer 0.1μM) is reported as 1.07; in test [1] (CCR7, tracer 1μM) it was 1.05; in test [2] (CXCR2, tracer 0.1μM), 0.81; in test [2] (CXCR2, tracer 1μM), 0.78; in test [3] (PTAFR, tracer 0.1μM), 1.24; in test [3] (PTAFR, tracer 1μM), 0.78. In addition, the “NanoBRET Fold Response” value in test [4] (BRS3, tracer 0.1μM) turned out to be 1.05; in test [4] (BRS3, tracer 1μM), 0.94; in test [5] (RXFP2, tracer 0.1μM), 1.31; in test [5] (RXFP2, tracer 1μM) it was 0.72; in test [6] (NPBWR2, tracer 0.1μM), 1.05; in test [6] (NPBWR2, tracer 1μM), 1.04.
For the compound `CCOC(=O)c1cc(C#N)c(N2CCC(C(=O)NS(=O)(=O)Cc3ccccc3/C=C/C(=O)NCCNC(=O)CCc3ccc4n3[B-](F)(F)[N+]3=C(c5ccc[nH]5)C=CC3=C4)CC2)nc1C` [AZD1283-1-NB590], the “NanoBRET Fold Response” value in test [1] (CCR7, 0.1μM) amounted to 1.03; in test [1] (CCR7, 1μM) it was 1.01; in test [2] (CXCR2, 0.1μM), 0.99; in test [2] (CXCR2, 1μM), 1.03; in test [3] (PTAFR, 0.1μM), 1.01; in test [3] (PTAFR, 1μM) it was 1.17. In addition, the “NanoBRET Fold Response” value in test [4] (BRS3, 0.1μM) is 1.10; in test [4] (BRS3, 1μM), 1.02; in test [5] (RXFP2, 0.1μM), 1.25; in test [5] (RXFP2, 1μM), 1.29; in test [6] (NPBWR2, 0.1μM) it was 0.95; in test [6] (NPBWR2, 1μM) it was 0.99.
On to `COc1ccc2[nH]c(-c3ccc(CNC(=O)CCOCCOCCOCCOCCNC(=O)CCc4ccc5n4[B-](F)(F)[N+]4=C(c6ccc[nH]6)C=CC4=C5)cc3)c(CCNC(C)=O)c2n1` [AzomelatoninICO9-2-NB590], for which the “NanoBRET Fold Response” value came to 1.02 in test [1] (0.1μM tracer); 0.98 in test [1] (1μM tracer); 1.38 in test [2] (0.1μM tracer); 1.00 in test [2] (1μM tracer); 1.01 in test [3] (0.1μM tracer); 0.99 in test [3] (1μM tracer). For the same compound, the “NanoBRET Fold Response” value stood at 0.86 in test [4] (0.1μM tracer); 0.91 in test [4] (1μM tracer); 1.23 in test [5] (0.1μM tracer); 0.59 in test [5] (1μM tracer); 1.08 in test [6] (0.1μM tracer); 0.90 in test [6] (1μM tracer).
Turning to `CC(C)N(CC[C@H](c1ccccc1)c1cc(CCNC(=O)CCOCCOCCOCCOCCNC(=O)CCc2ccc3n2[B-](F)(F)[N+]2=C(c4ccc[nH]4)C=CC2=C3)ccc1O)C(C)C` [Tolterodine-2-NB590], the “NanoBRET Fold Response” value in test [1] (CCR7, tracer 0.1μM) came out at 1.26; in test [1] (CCR7, tracer 1μM) it was 0.88; in test [2] (CXCR2, tracer 0.1μM), 0.96; in test [2] (CXCR2, tracer 1μM) it was 0.98; in test [3] (PTAFR, tracer 0.1μM) it was 1.17; in test [3] (PTAFR, tracer 1μM), 0.73. Besides, the “NanoBRET Fold Response” value in test [4] (BRS3, tracer 0.1μM) is recorded as 1.02; in test [4] (BRS3, tracer 1μM) it was 1.04; in test [5] (RXFP2, tracer 0.1μM), 1.11; in test [5] (RXFP2, tracer 1μM) it was 1.30; in test [6] (NPBWR2, tracer 0.1μM), 1.41; in test [6] (NPBWR2, tracer 1μM), 0.83.
As to `CN1CCN(C2=Nc3cc(Cl)ccc3N(CC(=O)NCCOCCOCCOCCOCCNC(=O)CCc3ccc4n3[B-](F)(F)[N+]3=C(c5ccc[nH]5)C=CC3=C4)c3ccccc32)CC1` [Clozapine-c-2-NB590], the “NanoBRET Fold Response” value amounted to 0.97 in test [1] (CCR7, 0.1μM tracer); 1.04 in test [1] (CCR7, 1μM tracer); 1.03 in test [2] (CXCR2, 0.1μM tracer); 0.92 in test [2] (CXCR2, 1μM tracer); 1.01 in test [3] (PTAFR, 0.1μM tracer); 1.02 in test [3] (PTAFR, 1μM tracer). In addition, the “NanoBRET Fold Response” value in test [4] (BRS3, 0.1μM tracer) was determined as 0.93; in test [4] (BRS3, 1μM tracer), 1.07; in test [5] (RXFP2, 0.1μM tracer), 0.62; in test [5] (RXFP2, 1μM tracer) it was 1.17; in test [6] (NPBWR2, 0.1μM tracer) it was 0.97; in test [6] (NPBWR2, 1μM tracer), 0.98.
For `N#CN=C(NCCCOc1cccc(CN2CCCCC2)c1)NCCNC(=O)CCOCCOCCOCCOCCNC(=O)CCc1ccc2n1[B-](F)(F)[N+]1=C(c3ccc[nH]3)C=CC1=C2` [Aminopotentidine-2-NB590], the “NanoBRET Fold Response” value in test [1] (CCR7, tracer 0.1μM) is given as 0.96; in test [1] (CCR7, tracer 1μM), 1.01; in test [2] (CXCR2, tracer 0.1μM), 0.90; in test [2] (CXCR2, tracer 1μM), 0.95; in test [3] (PTAFR, tracer 0.1μM) it was 0.95; in test [3] (PTAFR, tracer 1μM), 1.02. Further, the “NanoBRET Fold Response” value came to 1.02 in test [4] (BRS3, tracer 0.1μM); 1.00 in test [4] (BRS3, tracer 1μM); 0.83 in test [5] (RXFP2, tracer 0.1μM); 0.83 in test [5] (RXFP2, tracer 1μM); 1.04 in test [6] (NPBWR2, tracer 0.1μM); 0.92 in test [6] (NPBWR2, tracer 1μM).
